Assay results published in the NIST ThermoML archive (doi:10.1021/je300252d).

Assay: mn = molality of the nth substance listed, in mol/kg
Conditions: 100 kPa, Liquid, Direct current cell with electrodes

[Na+].c1ccc([B-](c2ccccc2)(c2ccccc2)c2ccccc2)cc1 [sodium tetraphenylboron] + CN(C)C=O
Conditions	molar conductivity [S·m2/mol]
283.15 K, m1 = 0.0001121	0.004311
283.15 K, m1 = 0.0003006	0.004246
283.15 K, m1 = 0.0005305	0.004194
283.15 K, m1 = 0.0007538	0.0041545
283.15 K, m1 = 0.001184	0.0040963
283.15 K, m1 = 0.001959	0.0040172
283.15 K, m1 = 0.002964	0.0039424
283.15 K, m1 = 0.004014	0.0038787
283.15 K, m1 = 0.005905	0.0037902
283.15 K, m1 = 0.007908	0.0037146
283.15 K, m1 = 0.009953	0.0036529
283.15 K, m1 = 0.01189	0.003601
288.15 K, m1 = 8.405e-05	0.004653
288.15 K, m1 = 0.0003375	0.00456
288.15 K, m1 = 0.0005532	0.0045097
288.15 K, m1 = 0.0008262	0.0044598
288.15 K, m1 = 0.001174	0.0044103
288.15 K, m1 = 0.001935	0.0043259
288.15 K, m1 = 0.003089	0.004235
288.15 K, m1 = 0.003947	0.00418
288.15 K, m1 = 0.005926	0.0040813
288.15 K, m1 = 0.007888	0.004001
288.15 K, m1 = 0.009893	0.0039356
288.15 K, m1 = 0.01186	0.0038782
293.15 K, m1 = 8.854e-05	0.00499
293.15 K, m1 = 0.0003068	0.004902
293.15 K, m1 = 0.0005164	0.0048481
293.15 K, m1 = 0.0007512	0.0047996
293.15 K, m1 = 0.001224	0.004726
293.15 K, m1 = 0.001989	0.004637
293.15 K, m1 = 0.003077	0.0045457
293.15 K, m1 = 0.004001	0.004483
293.15 K, m1 = 0.005908	0.0043822
293.15 K, m1 = 0.007927	0.004295
293.15 K, m1 = 0.009859	0.004226
293.15 K, m1 = 0.0119	0.004162
298.15 K, m1 = 0.000116	0.005325
298.15 K, m1 = 0.0003157	0.005244
298.15 K, m1 = 0.0005504	0.0051809
298.15 K, m1 = 0.0007618	0.0051351
298.15 K, m1 = 0.001217	0.0050592
298.15 K, m1 = 0.002007	0.0049609
298.15 K, m1 = 0.002964	0.0048739
298.15 K, m1 = 0.003939	0.004802
298.15 K, m1 = 0.005917	0.0046899
298.15 K, m1 = 0.00789	0.004599
298.15 K, m1 = 0.009808	0.0045256
298.15 K, m1 = 0.01189	0.0044558
303.15 K, m1 = 0.0001023	0.005694
303.15 K, m1 = 0.0003262	0.005596
303.15 K, m1 = 0.0005565	0.00553
303.15 K, m1 = 0.0007645	0.0054821
303.15 K, m1 = 0.001229	0.0053997
303.15 K, m1 = 0.002017	0.0052952
303.15 K, m1 = 0.003018	0.0051984
303.15 K, m1 = 0.004001	0.0051217
303.15 K, m1 = 0.005892	0.0050075
303.15 K, m1 = 0.007841	0.0049118
303.15 K, m1 = 0.009874	0.0048292
303.15 K, m1 = 0.01188	0.0047579
308.15 K, m1 = 0.000135	0.006046
308.15 K, m1 = 0.0003264	0.005961
308.15 K, m1 = 0.0005229	0.0058999
308.15 K, m1 = 0.0007539	0.0058422
308.15 K, m1 = 0.00122	0.0057534
308.15 K, m1 = 0.002002	0.0056421
308.15 K, m1 = 0.002969	0.005541
308.15 K, m1 = 0.00395	0.0054581
308.15 K, m1 = 0.005926	0.00533
308.15 K, m1 = 0.007923	0.0052265
308.15 K, m1 = 0.009885	0.005143
308.15 K, m1 = 0.01187	0.0050687
313.15 K, m1 = 8.854e-05	0.00646
313.15 K, m1 = 0.0002531	0.006367
313.15 K, m1 = 0.0004344	0.006299
313.15 K, m1 = 0.00071	0.0062208
313.15 K, m1 = 0.001219	0.006116
313.15 K, m1 = 0.002012	0.0059959
313.15 K, m1 = 0.003006	0.0058852
313.15 K, m1 = 0.00399	0.0057965
313.15 K, m1 = 0.005907	0.0056636
313.15 K, m1 = 0.007913	0.0055535
313.15 K, m1 = 0.00989	0.0054653
313.15 K, m1 = 0.01185	0.0053887
318.15 K, m1 = 0.0001115	0.006838
318.15 K, m1 = 0.0002618	0.006751
318.15 K, m1 = 0.000487	0.006665
318.15 K, m1 = 0.0007457	0.0065904
318.15 K, m1 = 0.001234	0.0064856
318.15 K, m1 = 0.002038	0.0063572
318.15 K, m1 = 0.003	0.0062427
318.15 K, m1 = 0.003985	0.0061473
318.15 K, m1 = 0.005931	0.0060029
318.15 K, m1 = 0.007878	0.0058897
318.15 K, m1 = 0.009914	0.0057949
